42 compounds from US20240091328A1, “FORMULATIONS AND METHODS FOR MHC-I RESTRICTED EPITOPE IMMUNIZATION” (The Research Foundation for The State University of New York, priority 2021, published 2024) can be followed below.

Counter-ions that a name gives are not always drawn.

The subject of assay [1] is IFN-γ and TNF-α producing CD8^+ T cells. Briefly: Intracellular IFN-γ / TNF-α staining of splenocytes after antigen re-stimulation. The assay is classed as in vivo, BALB/c mice. The note with it: mice vaccinated with CPQ and 20 RENCA peptides. Here is the method:
For Intracellular staining: 100 μL of 1×10^6 splenocytes were seeded in a flat bottom 96 wells plate and stimulated with 10 μg/mL antigen for 15-18 hours in the cell culture incubator. Then Brefeldin A was added to the plates with a dilution of 1000× for another 5 hours. Cells were transferred to a round bottom 96 wells plate and centrifuged at 1350 rpm for 3 mins, the cell pellets were washed twice and stained with 500× live/dead fixable dye, 200× diluted APC anti-mouse CD8, 200× diluted FITC anti-mouse CD4, 200× diluted PE/Cy7 anti-mouse CD62L and 200× diluted PerCP/Cy5.5 […] 25 min at 4° C. with shaking. Cells were washed twice and fixed and permeabilized by fixation/permeabilization buffer for 20 min at 4° C. Cells were washed twice with perm wash buffer and stained with 200× diluted pacific blue anti-mouse IFN-γ and 200× diluted PE anti-mouse TNF-α for 30 min on ice. Cells were washed twice by perm/wash buffer for flow cytometry.

Assay [2] has as its system RAW264.7 murine macrophage cells. Briefly: In vitro cell uptake of A5-HiLyte488, macrophages. The assay is classed as cell-based, mouse. The settings on record: cells pre-incubated with inhibitor 10 μg/mL for an hour, CPQ/A5. Here is the method:
For in vitro cell uptake studies, RAW264.7 cells (2.5×10^5 per well) and BMDCs (2.5×10^5 per well) were cultured in a 24-well plates overnight, then treated with CPQ/A5-HiLyte488, 2HPQ/A5-HiLyte488 and PBS/A5-HiLyte488 (peptide concentration of 1 μg/mL) for 10 min, 30 min or an hour. For phagocytosis and endocytosis inhibitor study, cells were first pre-incubated with cytochalasin B (10 μg/ml) or chlorpromazine (10 μg/mL) for an hour before the cell uptake study. Cells were washed and lysed with 0.1% Triton X-100 and 10 mM dithiothreitol (DTT). The fluorescence signals were measured before and after adding DTT. Cellular A5-HiLyte488 uptakes were calculated by preparing an A5-HiLyte488 standard curve.

The next assay has as its system CT26 cells. Briefly: Experimental lung metastasis tumor model, CT26. In kind it is in vivo, BALB/c mice. The settings on record: 1000 ng (total) peptides with CPQ, 1 and 8 days after i.v. CT26. As to the method: Tumor challenge: For the prophylactic vaccine tumor model, mice were vaccinated on day 0 and 7, and challenged on day 14. For testing the long-term protection of vaccine, mice were challenged on day 80. For the therapeutic vaccine tumor model, mice were inoculated with tumor cells subcutaneously on day 0, and then vaccinated with indicated vaccine on days 5 and 12. Tumor growth was monitored three times a week and tumor sizes were calculated by equation: Tumor volume=length×width^2/2. Animals were euthanized when the tumor sizes reached 1 cm in diameter or when animals developed an ulceration. For the experimental lung metastasis tumor model, animals were injected intravenously via tail vein with tumor cells on day 0, then were left untreated or treated with intramuscular injection with the indicated vaccines on day 2 and 9 for the A5 vaccine studies or day 1 and 8 for the RragcL385P, Tmem5S71N or EML5G44R peptide screening studies. Lungs were excised and stained with Bouin's solution (Sigma Catalog: HT10132) on day 18 for mice injected with CT26 cells and on day 16 for mice injected with 4T1 cells. Tumor nodules were counted manually and lung weights were measured.

For assay [3], the system named is IFN-γ producing CD8^+ T cells. The assay can be described thus: Intracellular IFN-γ in CD8+ T cells of re-stimulated PBMCs. The note with it: multivalent E6/E7 vaccine, 100 ng each peptide. In kind it is in vivo, C57BL/6 mice. As to the method:
The E6 and E7 genes of TC-1 cells were sequenced from extracted DNA using Sanger sequencing. Six predicted H-2K^b- and H-2D^b-restricted epitopes within the top percentile of MHC-I binders were identified using a neural network simulation algorithm. […] These 6 peptides were combined with CPQ to form a single multivalent vaccine for mice and the immunogenicity of each peptide were assessed by Interferon gamma (IFN-γ production after individual peptide stimulation of collected peripheral blood mononuclear cells (PBMCs). Mice were then challenged with TC-1 cells subcutaneously to assess the tumor protection of the vaccine (FIG. 21A).
Collected PBMCs were re-stimulated with the epitope candidates that comprised the multivalent vaccine after which CD8^+ T cells were assessed for intracellular IFN-γ production, indicating the induction of Ag-specific CD8^+ T cells. […] When PBMCs from mice injected with the non-particle forming 2HPQ/peptides were re-stimulated with the peptides, none induced IFN-γ producing CD8^+ T cells (FIG. 21E).

The subject of the next assay is TC-1 cells. Briefly: Prophylactic vaccine tumor model, subcutaneous TC-1 challenge. In kind it is in vivo, C57BL/6 mice. The settings on record: days 0 and 7, challenge day 14. The text has this: To determine immunogenicity, C57BL/6 mice were then vaccinated intramuscularly with the multivalent vaccine on days 0 & 7, and peripheral blood mononuclear cells (PBMCs) were collected and mice challenged with TC-1 tumor cells on day 14. […] Thus, the presentation of the peptides in the form of a particle, even with identical amounts of QS-21 and MPLA, appeared to be important for inducing memory CD8^+ T cells.
Next, to determine which of the peptide epitopes provided anti-tumor activity, peptides were admixed individually with CPQ or 2HIPQ liposomes (FIG. 22A). Individually, all of the peptides effectively bound to CPQ liposomes, but not to 2HIPQ liposomes lacking cobalt (FIG. 22B). Liposome size remained ˜100 nm after binding with E6 and E7 peptides (FIG. 22C). Next, mice were vaccinated with the peptides admixed with CPQ on days 0 & 7 at a peptide dose of 500 ng. Each mouse was then challenged with TC-1 cells on day 14. […]
Tumor challenge: For the prophylactic vaccine tumor model, mice were vaccinated on day 0 and 7, and challenged on day 14. […] Tumor growth was monitored three times a week and tumor sizes were calculated by equation: Tumor volume=length×width^2/2. […] Tumor nodules were counted manually and lung weights were measured.

A further assay has as its system IFN-γ. The assay can be described thus: In vivo peptide micro-library screening, IFN-γ ELISA of re-stimulated splenocytes relative to A5. Set-up: species or system mice. The settings on record: rank among 100 micro-library peptides; IFN-γ on re-stimulation relative to A5; 5 peptides plus A5 with CPQ. As to the method:
Mice were immunized with 5 library peptides at a time, along with the A5 peptide, with all peptides combined and admixed with CPQ. After two intramuscular injections, splenocytes were collected, and then re-stimulated with each of the synthetic micro-library peptides, individually. Production of IFN-γ was measured and peptide immunogenicity was determined relative to the A5 peptide, which served as in internal control that could induce strong Ag-specific CD8^+ T cell responses.
For Ag screening, multivalent vaccine composed of peptide with the same MHC-I haplotypes (H-2L^d, H-2D^d, or H-2K^d) and the internal A5 peptide were admixed with CPQ. After immunization, only ˜10% of MHC-I binding peptides induced T cells in splenocytes that produced IFN-γ with peptide re-stimulation, and none were nearly as effective as A5 (FIG. 16B). The most highly immunogenic peptides only produced about a quarter of the level of IFN-γ relative to A5. […] It is also feasible that immunization with higher antigen doses of single individual peptides could have induced stronger immunogenic responses, although this would decrease the in vivo peptide micro-library screening throughput.
IFN-γ ELISA: 2.5×10^5 splenocytes were seeded in a 96 wells plate and stimulated with 10 μg/mL antigens for 72 hr. 50 μL of supernatant was collected from each well and subjected to Interferon gamma ELISA (Thermofisher; catalog: BMS606TEN) according to manufacturer protocol.
Background: In an ELISA, binding on a coated surface is turned into a signal by an enzyme label.

For “3His-GYHESGHAI (HHHGYHESGHAI; N-terminal 3His tag; Renca_8)”, the “IFN-γ producing CD8^+ T cells in the spleen after stimulation with individual peptide” value in assay [1] is reported as roughly 5%. Consider `CN(C)CCCN1c2ccccc2Sc2ccc(Cl)cc21` [chlorpromazine, Chlorpromazine hydrochloride], for which the “A5 peptide uptake by macrophages in the presence of inhibitor” value in assay [2] is on record as “significantly less”. Still for that read-out and setting: then `C=C1[C@@H](C)[C@H]2[C@H](Cc3ccccc3)NC(=O)[C@]23OC(=O)/C=C/[C@H](O)CCC[C@@H](C)C/C=C/[C@H]3[C@@H]1O` [cytochalasin B], with “significantly less”.

With “Eml5G44R: 9-mer neoantigen peptide; tagged forms CT71 and 3his-CT71 (VYFVAGVRV)”, the Lung nodules result in the assay with CT26 cells is listed as “no significant difference”. For the compound “H3-RAHYNIVTF (HHHRAHYNIVTF; H3 N-terminal flank; E749-57)”, the “IFN-γ producing cells of CD8+ T cells over background after peptide re-stimulation of PBMCs” value in assay [3] is given as “higher percentage”. The Tumor-free survival maintained result with TC-1 cells (500 ng peptide with CPQ) is on record as “at least 60 days”. Moreover, the “Tumor growth after TC-1 challenge, single peptide with CPQ” value in the assay on TC-1 cells (500 ng peptide) is given as “inhibited tumor growth”.

With “H3-STHVDIRTL (HHHSTHVDIRTL; H3 N-terminal flank; E771-79)”, the “IFN-γ producing cells of CD8+ T cells over background after peptide re-stimulation of PBMCs” value in assay [3] is reported as “higher percentage”. The same measure, in the same setting: then “H3-TLHEYMLDL (HHHTLHEYMLDL; H3 N-terminal flank; E76-14)”, with “higher percentage”. “H6-SEGNSSHTI-ERR (HHHHHHSEGNSSHTIERR; CT81) [CT80]”: the Experimental rank in the assay with IFN-γ worked out at 31.

In the case of “H6-SFQPTADEL-ERR (HHHHHHSFQPTADELERR; CT62)”, the Experimental rank in the assay with IFN-γ turned out to be 11. Same read-out and setting: then “H6-SGPIGPPEI-ERR (HHHHHHSGPIGPPEIERR; CT48)”, with 70.

In the case of “H6-SGPSYATYL-ERR (HHHHHHSGPSYATYLERR; CT1)”, the Experimental rank in the assay with IFN-γ is listed as 62.

Regarding “H6-SPKALAHNG-ERR (HHHHHHSPKALAHNGERR; CT37*)”, the Experimental rank in the assay with IFN-γ is 1. Same read-out and setting: the result for “H6-SPNRRFTEM-ERR (HHHHHHSPNRRFTEMERR; CT17)” reads 58; that for “H6-SRLQSLTLI-ERR (HHHHHHSRLQSLTLIERR; CT72)”, 7. Same read-out and setting: the result for “H6-SSKHRRSFV-ERR (HHHHHHSSKHRRSFVERR; CT38*)” reads 45; that for “H6-SYATYLQPA-ERR (HHHHHHSYATYLQPAERR; CT63)”, 19; that for “H6-SYETLKKSL-ERR (HHHHHHSYETLKKSLERR; CT7)”, 94. On the same count and under the same terms, then “H6-SYIKKLKEL-ERR (HHHHHHSYIKKLKELERR; CT29)”, with 90.

As for H6-SYIMAICGM-ERR [CT67], in the assay on IFN-γ, the Experimental rank was found to be 36. Same read-out and setting: the result for “H6-SYLRRLPGL-ERR (HHHHHHSYLRRLPGLERR; CT35)” reads 100. “H6-SYQAALAEN-ERR (HHHHHHSYQAALAENERR; CT77)”: the Experimental rank in the assay on IFN-γ is 39.

Take “H6-SYTEQNVKL-ERR (HHHHHHSYTEQNVKLERR; CT30)”: the Experimental rank in the assay with IFN-γ is recorded as 85. Still for that read-out and setting: then “H6-SYTSYIMAI-ERR (HHHHHHSYTSYIMAIERR; CT10)”, with 69; and “H6-TALPVGFSL-ERR (HHHHHHTALPVGFSLERR; CT90)”, with 79; and “H6-TGPYVMMIG-ERR (HHHHHHTGPYVMMIGERR; CT6)”, with 84.

As for “H6-TGRRRTATK-ERR (HHHHHHTGRRRTATKERR; CT59)”, the Experimental rank in the assay with IFN-γ stood at 30. Still for that read-out and setting: the result for “H6-TPHVLWSWG-ERR (HHHHHHTPHVLWSWGERR; CT97)” reads 4; that for “H6-TPPSHKLPL-ERR (HHHHHHTPPSHKLPLERR; CT55)”, 23.

“H6-TPPSIFSTQ-ERR (HHHHHHTPPSIFSTQERR; CT49)”: in the assay on IFN-γ, the Experimental rank is listed as 73. As for “H6-TY AIALINV-ERR (HHHHHHTYAIALINVERR; CT70)”, the Experimental rank in the assay with IFN-γ was 29. As to “H6-TYLQPAQAQ-ERR (HHHHHHTYLQPAQAQERR; CT75)”, the Experimental rank with IFN-γ came out at 12. With “H6-TYWKGNPEM-ERR (HHHHHHTYWKGNPEMERR; CT31)”, the Experimental rank with IFN-γ worked out at 97. Still for that read-out and setting: then “H6-VVEANWTML-ERR (HHHHHHVVEANWTMLERR; CT96)”, with 2; and “H6-VVLETFYDL-ERR (HHHHHHVVLETFYDLERR; CT19)”, with 56; and “H6-VYFTINVNL-ERR (HHHHHHVYFTINVNLERR; CT32)”, with 43. On to “H6-VYFVAGVRV-ERR (HHHHHHVYFVAGVRVERR; H6 and ERR flanks; CT71)”, for which, in the assay on IFN-γ, the Experimental rank is listed as 3.

“H6-WGAWLSGAL-ERR (HHHHHHWGAWLSGALERR; CT42)”: the Experimental rank with IFN-γ is reported as 28.

Turning to “H6-YGKGVNFYL-ERR (HHHHHHYGKGVNFYLERR; CT50)”, the Experimental rank in the assay with IFN-γ was determined as 68. Take “H6-YVYEIYMTF-ERR (HHHHHHYVYEIYMTFERR; CT98)”: the Experimental rank with IFN-γ is recorded as 9.

On to “H6-YYESDEFTV-ERR (HHHHHHYYESDEFTVERR; CT65)”, for which the Experimental rank in the assay on IFN-γ was determined as 17. Still for that read-out and setting: then “H6-YYMRDVIAI-ERR (HHHHHHYYMRDVIAIERR; CT33)”, with 96. Turning to “Tmem5S71N: 9-mer neoantigen peptide; tagged forms CT96 and 3his-CT96 (VVEANWTML) (HHHVVEANWTML; N-terminal 3His tag; 3his-CT96/Tmem5S71N)”, in the assay on CT26 cells, the Lung nodules entry is on record as “no significant difference”.
